Laboratory results reported in paper PMC6801448, “The Antioxidant and Antiproliferative Activities of 1,2,3-Triazolyl-L-Ascorbic Acid Derivatives” (International Journal of Molecular Sciences, 2019).
Read-outs that look alike come from different tables or passages of the source.

How the values were obtained:
[1] = test system: CFPAC-1 (ductal pancreatic adenocarcinoma); assay: MTT proliferation assay, CFPAC-1; type: cell-based; settings: Homo sapiens, 72 h
Method: (§1) Human tumor cell lines HeLa (cervical carcinoma), SW620 (colorectal adenocarcinoma, metastatic), A549 (lung adenocarcinoma), MCF−7 (breast adenocarcinoma), CFPAC-1 (pancreatic adenocarcinoma, metastatic), HCT-116 (colorectal carcinoma), and HepG2 (hepatocellular carcinoma), and normal cell lines HFF-1 (foreskin fibroblasts) and WI-38 (immortalized human lung fibroblast), were from the US American Type Culture Collection (ATCC, Manassas, VA, USA). Cells were cultured in a liquid nutrient medium (Dulbecco’s Modified Eagle Medium, LONZA, Basel, Switzerland) supplemented with 10% fetal bovine serum (FBS, Gibco, Grand Island, NY, USA), 2 mM L-glutamine (GIBCO, Grand Island, NY, USA), 100 μg/mL penicillin, and 100 μg/mL streptomycin (LONZA, Basel, Switzerland), in an incubator (NÜVE, Ankara, Turkey), at a humid atmosphere with 5% CO2 at 37 °C. Trypsin/EDTA Solution (Lonza, Basel, Switzerland), was used for cell passaging and cell detachment.
(§2) Adherent cells were seeded on 96 well microtiter plates (Falcon, New York, NY, USA) at a seeding density of 5000 cells per well, added in 150 μL of cell suspension in a nutrient medium. 24 h after seeding, cells were treated with compound 4b–4g, 4i, 4k–4t, 4v, 7c–7g, and 7i–7q dilutions in the range of 0.01 μM to 100 μM. L-ascoric acid (Sigma Aldrich, Darmstadt, Germany) and Carboxyamidotriazole (Sigma Aldrich, Darmstadt, Germany) were used as control compounds. Incubation of the cells with the compounds were performed for 72 h in a 5% CO2, in humid atmosphere at 37 °C. After incubation, nutrient medium was removed and 40 μL of the MTT reagent ([…]-2,5-diphenyltetrazole bromide (Invitrogen, Carlsbad, CA, USA) was added to each well. 3 h after incubation, 160 μL of DMSO (VWR CHEMICALS, Radnor, PA, USA) were added to each well to dissolve the crystals of purple formazane. The absorbance was measured at 570 nm (TECAN SUNRISE Microtiter plate reader (Männedorf, Switzerland). The experimentally measured optical densities (OD) were converted to the PG (percentage of growth), using the formulas according to the protocol assumed by NIH (National Institute of Health). The IC50 values (concentration causing 50% cell growth inhibition) for each compound were calculated by regression analysis of the survival count curve of the concentrations of the tested compounds. The results were processed in Excel 2010 (Microsoft, Redmond, WA, USA).

[2] = test system: HepG2 (hepatocellular carcinoma); assay: MTT proliferation assay, HepG2; type: cell-based; settings: Homo sapiens, 72 h
Method: as §1, §2

[3] = test system: MCF-7 (breast adenocarcinoma); assay: MTT proliferation assay, MCF-7; type: cell-based, Human; settings: Homo sapiens, MCF7; 72 h, MTT
Method: as §1, §2

[4] = test system: HCT-116 (colorectal carcinoma); assay: MTT proliferation assay, HCT-116; type: cell-based; settings: Homo sapiens, 72 h
Method: as §1, §2

[5] = DPPH radical scavenging assay; type: biochemical
Method: Likewise, L-ASA, the 1,2,3-triazole L-ASA derivatives with free C2-OH and C3-OH groups were expected to be potent antioxidants. Therefore, they were tested as radical scavengers by reaction with the stable free radical 2,2-diphenyl-1-picrylhydrazyl (DPPH^•).
Antioxidant capacity of selected compounds was assessed by 2,2-diphenyl-1-picrylhydrazyl assay (DPPH, Sigma Aldrich, Darmstadt, Germany), in which the antioxidant activity of compounds is measured by the reaction between a stable radical of 1,1-diphenyl-2-picylhydrazil (DPPH^•) and a selected compound according to the manufacturer recommendations. Briefly, compounds 4b–4e, 4f–4h, 4k, 4l, 4o, 4p–4s, 4t, 4v, 7c–7f, 7i–7n, 7q, 7p, and 7o were tested at 0.06, 0.12, 0.18, 0.23, 0.25, and 0.28 mM. L-ascorbic acid was used as the reference compound. Absorbance was measured 5 and 10 min after incubation of the compounds with the DPPH reagent. The reduction of DPPH with selected compounds was monitored by measuring the absorbance at a wavelength of 517 nm on the monochromator (Infinite M200 PRO, TECAN, Männedorf, Switzerland).

[6] = test system: A549 (lung adenocarcinoma); assay: MTT proliferation assay, A549; type: cell-based; settings: Homo sapiens, 72 h
Method: as §1, §2

[7] = test system: HFF-1 (foreskin fibroblasts); assay: MTT proliferation assay, HFF-1; type: cell-based; settings: Homo sapiens, 72 h, normal foreskin fibroblasts
Method: as §1, §2

WI-38 (lung fibroblasts) = assay: MTT proliferation assay, WI-38; type: cell-based; settings: Homo sapiens, 72 h, normal lung fibroblasts
Method: as §1, §2

[8] = test system: SW620 (colorectal adenocarcinoma, metastatic); assay: MTT proliferation assay, SW620; type: cell-based; settings: Homo sapiens, SW-620, 72 h
Method: as §1, §2

[9] = test system: HeLa (cervical carcinoma); assay: MTT proliferation assay, HeLa; type: cell-based; settings: Homo sapiens, 72 h
Method: as §1, §2

[10] = 5 min treatment, read-out: IC50 of DPPH• inhibition, Treatm. 5 min
[11] = 10 min treatment, read-out: IC50 of DPPH• inhibition, Treatm. 10 min

## O=C1O[C@H]([C@@H](O)Cn2cc(-c3cc(C(F)(F)F)cc(C(F)(F)F)c3)nn2)C(O)=C1O [Compound 4c, 6-deoxy-6-[4-(3,5-bis(trifluoromethyl)phenyl)-1,2,3-triazol-1-yl]-L-ascorbic acid]
[1]
  IC50: > 100 µM
[2]
  IC50: > 100 µM
[3]
  IC50: > 100 µM
[4]
  IC50: > 100 µM
[5]; [10]
  IC50: 260 ± 20 µM
[5]; [11]
  IC50: 250 µM
[6]
  IC50: > 100 µM
[7]
  IC50: > 100 µM
WI-38 (lung fibroblasts)
  IC50: > 100 µM
[8]
  IC50: > 100 µM
other
  melting point: ≥ 250 °C
[9]
  IC50: > 100 µM

## O=C1O[C@H]([C@@H](O)Cn2cc(-c3ccccc3O)nn2)C(O)=C1O [Compound 4i, 6-deoxy-6-[2-hydroxyphenyl-1,2,3-triazol-1-yl]-L-ascorbic acid]
[1]
  IC50: > 100 µM
[2]
  IC50: > 100 µM
[3]
  IC50: > 100 µM
[4]
  IC50: > 100 µM
[5]; [10]
  IC50: > 280 µM
[5]; [11]
  IC50: > 280 µM
[6]
  IC50: > 100 µM
[7]
  IC50: 0.92 µM
WI-38 (lung fibroblasts)
  IC50: > 100 µM
[8]
  IC50: > 100 µM
other
  melting point: 129 to 131 °C
[9]
  IC50: > 100 µM

## CCCCCc1ccc(-c2cn(C[C@H](O)[C@H]3OC(=O)C(O)=C3O)nn2)cc1 [Compound 4k, 6-deoxy-6-[4-(4-pentylphenyl)-1,2,3-triazol-1-yl]-L-ascorbic acid]
[1]
  IC50: > 100 µM
[2]
  IC50: > 100 µM
[3]
  IC50: 26.9 µM
[4]
  IC50: > 100 µM
[5]; [10]
  IC50: 210 ± 70 µM
[5]; [11]
  IC50: 130 ± 40 µM
[6]
  IC50: > 100 µM
[7]
  IC50: 0.21 µM
WI-38 (lung fibroblasts)
  IC50: > 100 µM
[8]
  IC50: > 100 µM
other
  melting point: 237 to 239 °C
[9]
  IC50: > 100 µM

## O=C1O[C@H]([C@@H](O)Cn2cc(C3CC3)nn2)C(O)=C1O [Compound 4l, 6-[4-cyclopropyl-1,2,3-triazol-1-yl]-6-deoxy-L-ascorbic acid]
[1]
  IC50: > 100 µM
[2]
  IC50: > 100 µM
[3]
  IC50: > 100 µM
[4]
  IC50: > 100 µM
[5]; [10]
  IC50: 170 ± 160 µM
[5]; [11]
  IC50: 160 ± 140 µM
[6]
  IC50: > 100 µM
[7]
  IC50: 4.61 µM
WI-38 (lung fibroblasts)
  IC50: > 100 µM
[8]
  IC50: > 100 µM
other
  melting point: 119 to 121 °C
[9]
  IC50: > 100 µM

## CCCCc1cn(C[C@H](O)[C@H]2OC(=O)C(O)=C2O)nn1 [Compound 4m, 6-(4-butyl-1,2,3-triazol-1-yl)-6-deoxy-L-ascorbic acid]
[1]
  IC50: > 100 µM
[2]
  IC50: > 100 µM
[3]
  IC50: > 100 µM
[4]
  IC50: > 100 µM
[5]; [10]
  IC50: > 280 µM
[5]; [11]
  IC50: > 280 µM
[6]
  IC50: > 100 µM
[7]
  IC50: 0.12 µM
WI-38 (lung fibroblasts)
  IC50: > 100 µM
[8]
  IC50: > 100 µM
other
  melting point: 98 to 99 °C
[9]
  IC50: > 100 µM

## CCCCCCCCCCc1cn(C[C@H](O)[C@H]2OC(=O)C(O)=C2O)nn1 [Compound 4n, 6-(4-decyl-1,2,3-triazol-1-yl)-6-deoxy-L-ascorbic acid]
[1]
  IC50: > 100 µM
[2]
  IC50: > 100 µM
[3]
  IC50: > 100 µM
[4]
  IC50: > 100 µM
[5]; [10]
  IC50: 150 ± 60 µM
[5]; [11]
  IC50: 100 ± 30 µM
[6]
  IC50: > 100 µM
[7]
  IC50: 0.06 µM
WI-38 (lung fibroblasts)
  IC50: > 100 µM
[8]
  IC50: > 100 µM
other
  melting point: 140 to 142 °C
[9]
  IC50: > 100 µM

## CCCCCCCCCCc1cn(C/C=C2\OC(=O)C(O)=C2O)nn1 [Compound 7n, 6-(4-decyl-1,2,3-triazol-1-il)-4,5-didehydro-5,6-dideoxy-L-ascorbic acid]
[1]
  IC50: > 100 µM
[2]
  IC50: > 100 µM
[3]
  IC50: > 100 µM
[4]
  IC50: > 100 µM
[5]; [10]
  IC50: 140 µM
[5]; [11]
  IC50: 100 µM
[6]
  IC50: > 100 µM
WI-38 (lung fibroblasts)
  IC50: > 100 µM
[8]
  IC50: > 100 µM
other
  melting point: 169 to 171 °C
[9]
  IC50: > 100 µM

## CC(C)(C)c1cn(C/C=C2\OC(=O)C(O)=C2O)nn1 [Compound 7o, 6-[4-tert-butyl-1,2,3-triazole-1-yl]-4,5-didehydro-5,6-dideoxy-L-ascorbic acid]
[1]
  IC50: > 100 µM
[2]
  IC50: > 100 µM
[3]
  IC50: > 100 µM
[4]
  IC50: > 100 µM
[5]; [10]
  IC50: 200 µM
[5]; [11]
  IC50: 200 µM
[6]
  IC50: > 100 µM
WI-38 (lung fibroblasts)
  IC50: > 100 µM
[8]
  IC50: > 100 µM
other
  melting point: 182 to 184 °C
[9]
  IC50: > 100 µM

## O=C1O/C(=C\Cn2cc(CCCCl)nn2)C(O)=C1O [Compound 7p, 6-[4-chloropropyl-1,2,3-triazole-1-yl]-4,5-didehydro-5,6-dideoxy-L-ascorbic acid]
[1]
  IC50: > 100 µM
[2]
  IC50: > 100 µM
[3]
  IC50: > 100 µM
[4]
  IC50: > 100 µM
[5]; [10]
  IC50: 200 µM
[5]; [11]
  IC50: 200 µM
[6]
  IC50: > 100 µM
WI-38 (lung fibroblasts)
  IC50: > 100 µM
[8]
  IC50: > 100 µM
other
  melting point: 160 to 162 °C
[9]
  IC50: > 100 µM

## O=C1O/C(=C\Cn2cc(CCO)nn2)C(O)=C1O [Compound 7q, 6-[4-(2-hydroxyethyl)-1,2,3-triazole-1-yl]-4,5-didehydro-5,6-dideoxy-L-ascorbic cid]
[1]
  IC50: > 100 µM
[2]
  IC50: > 100 µM
[3]
  IC50: > 100 µM
[4]
  IC50: > 100 µM
[5]; [10]
  IC50: 70 µM
[5]; [11]
  IC50: 70 µM
[6]
  IC50: > 100 µM
WI-38 (lung fibroblasts)
  IC50: > 100 µM
[8]
  IC50: > 100 µM
other
  melting point: 172 to 173 °C
[9]
  IC50: > 100 µM
